Columns and labels:
[1] = target: T1, human orexin 2 receptor (hOx2R) (Homo sapiens, UniProt O43614); test: Radioligand binding assay ([125I]orexin A competition), hOx2R; details: CHO or HEK cell membranes, 1 h room temperature
T1 construct: expressed in transfected cells
T1 sequence (O43614 1-444): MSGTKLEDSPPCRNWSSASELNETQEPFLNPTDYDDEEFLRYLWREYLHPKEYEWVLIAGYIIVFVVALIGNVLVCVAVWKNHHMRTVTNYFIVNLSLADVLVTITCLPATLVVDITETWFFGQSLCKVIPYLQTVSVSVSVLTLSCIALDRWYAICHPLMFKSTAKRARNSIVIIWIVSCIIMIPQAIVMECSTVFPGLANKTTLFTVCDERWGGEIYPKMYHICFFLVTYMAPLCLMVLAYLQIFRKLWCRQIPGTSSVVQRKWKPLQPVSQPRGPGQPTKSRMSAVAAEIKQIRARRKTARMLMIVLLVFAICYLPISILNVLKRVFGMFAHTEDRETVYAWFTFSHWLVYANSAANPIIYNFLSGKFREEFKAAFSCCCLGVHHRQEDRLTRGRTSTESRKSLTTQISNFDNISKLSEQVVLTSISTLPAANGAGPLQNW
Procedure: (§1) For crude cell membrane preparations, cells (CHO, Chinese hamster ovary or HEK, human embryonic kidney) expressing human orexin 1 or human orexin 2 receptors, were washed with HEPES (10 mM, pH 7.5), scraped off the culture plates with the same buffer, and centrifuged at 4° C. for 5 min at 2500×g. The cell pellet was either stored at −80° C. or used directly. Before the experiments, cell membranes were re-suspended in binding assay buffer (10 mM HEPES, 0.5% (w/v) bovine serum albumin, pH 7.5) by homogenisation with a Polytron homogeniser at 50 Hz for 20 s. Cell membranes were also used as made available by commercial providers.
(§2) In initial saturation experiments (to calculate Bmax), cell homogenates (150 μl) were incubated with 25-300 pM of the radioligand ([^125I]orexin A, 50 μl), 8 concentrations in triplicates in the presence or absence Orexin A (1 μM, 50 μl) to define non specific binding. Bound radioactivity was measured, and data were analysed with the program XLFIT or Graphpad Prism. Protein concentration was determined according to the Bradford/BioRad Protein Assay Kit.
(§3) In competition experiments, cell homogenates (150 μl) were incubated in assay buffer (10 mM HEPES, pH 7.5, 0.5% (w/v) bovine serum albumin, 5 mM MgCl2, […], and tween 0.05%) for 1 h at room temperature with about […] of the radioligand ([^125I]orexin A, 2100 Ci/mmole, 50 μl), and with various concentrations of compounds of the invention (50 μl) in triplicates; non-specific binding was determined in the presence of Orexin A (1 μM). Reactions were terminated by vacuum filtration, 3 washes of ice cold wash buffer (Tris-HCl pH 7.4/10 mM, with NaCl 154 mM). Competition data is expressed in Table 1 as Kd [μM].

[2] = target: T2, human orexin 1 receptor (hOx1R) (Homo sapiens, UniProt O43613); test: Radioligand binding assay ([125I]orexin A competition), hOx1R; details: CHO or HEK cell membranes, 1 h room temperature
T2 construct: expressed in transfected cells
T2 sequence (O43613 1-425): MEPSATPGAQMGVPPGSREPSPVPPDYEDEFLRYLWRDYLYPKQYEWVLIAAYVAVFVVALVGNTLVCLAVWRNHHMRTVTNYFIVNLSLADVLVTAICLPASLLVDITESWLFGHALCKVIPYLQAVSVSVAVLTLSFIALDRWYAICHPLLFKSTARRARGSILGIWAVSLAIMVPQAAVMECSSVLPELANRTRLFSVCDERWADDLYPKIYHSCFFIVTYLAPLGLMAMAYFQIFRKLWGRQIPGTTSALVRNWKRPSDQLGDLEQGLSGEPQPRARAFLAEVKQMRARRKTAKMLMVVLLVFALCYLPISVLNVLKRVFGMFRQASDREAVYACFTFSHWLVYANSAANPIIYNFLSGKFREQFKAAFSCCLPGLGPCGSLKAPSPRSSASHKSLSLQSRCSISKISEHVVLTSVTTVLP
Procedure: as §1, §2, §3

[3] = target: T2, human orexin 1 receptor (hOx1R); test: Calcium accumulation in cells (FLIPR), antagonism of orexin A, hOx1R; type: cell-based; details: for Kd: cells expressing human orexin 1 receptor, IC50 vs orexin A converted by Cheng and Prusoff correction; for inhibition at 10 µM: measured at a concentration of 10 μM of compound (cells marked ^a)
Method in brief: (§4)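 Serum-starved receptor-expressing cells were loaded with Fluo-4-AM (2 μM) plus probenecid (0.1 mM) in HEPES buffer, pH 7.4, with 1% BSA, and Ca2+ fluorescence was read on FLIPR. Compounds (10^−9–10^−5 M) were added first, and orexin A was added one hour later to measure antagonism.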

[4] = target: T1, human orexin 2 receptor (hOx2R); test: Calcium accumulation in cells (FLIPR), antagonism of orexin A, hOx2R; type: cell-based; details: for Kd: cells expressing human orexin 2 receptor, IC50 vs orexin A converted by Cheng and Prusoff correction; for inhibition at 10 µM: measured at a concentration of 10 μM of compound (cells marked ^a)
Method in brief: as §4

SMILES | Kd [1] | Kd [2] | Kd [3] | Kd [4] | inhibition at 10 µM [3] | inhibition at 10 µM [4]
COc1cccc(C(=O)N(C)[C@H](CCNC(=O)c2nc3ccccc3n2C)Cc2ccccc2)c1 [Example 79, 1-Methyl-1H-benzoimidazole-2-carboxylic acid {(S)-3-[(3-methoxy-benzoyl)-methyl-amino]-4-phenyl-butyl}-amide] | 30 nM | 73 nM | 225 nM | 12 nM | – | –
CN(C(=O)c1ccc2c(c1)OCO2)[C@H](CCNC(=O)c1cc2ccccc2n1C)Cc1ccccc1 [Example 75, 1-Methyl-1H-indole-2-carboxylic acid {(S)-3-[(benzo[1,3]dioxole-5-carbonyl)-methyl-amino]-4-phenyl-butyl}-amide] | 473 nM | 705 nM | 267 nM | 31 nM | – | –
CN(C(=O)c1ccccc1)[C@H](CCNC(=O)c1ccc2c(c1)OCO2)Cc1ccccc1 [Example 93, Benzo[1,3]dioxole-5-carboxylic acid [(S)-3-(benzoyl-methyl-amino)-4-phenyl-butyl]-amide] | 114 nM | 3110 nM | – | 164 nM | 30% | –
CCOc1cc(OCC)cc(C(=O)N(C)[C@H](CCNC(=O)c2cccn2C)Cc2ccccc2)c1 [Example 122, 1-Methyl-1H-pyrrole-2-carboxylic acid {(S)-3-[(3,5-diethoxy-benzoyl)-methyl-amino]-4-phenyl-butyl}-amide] | 21 nM | 333 nM | 773 nM | 24 nM | – | –
CCCCC(=O)NCCC(Cc1ccccc1)N(C)C(=O)c1cc(C(F)(F)F)cc(C(F)(F)F)c1 (stereo not shown) [Example 39, N-(1-Benzyl-3-pentanoylamino-propyl)-N-methyl-3,5-bis-trifluoromethyl-benzamide] | 610 nM | > 10000 nM | – | 419 nM | 0% | –
CN(C(=O)c1ccc2ccccc2c1)[C@H](CCNC(=O)c1ccccn1)Cc1ccc(Cl)cc1 [Example 53, Pyridine-2-carboxylic acid {(S)-4-(4-chloro-phenyl)-3-[methyl-(naphthalene-2-carbonyl)-amino]-butyl}-amide] | 1460 nM | 3410 nM | – | 748 nM | 13% | –
CN(C(=O)c1cccc2ccccc12)[C@H](CCNC(=O)c1nc2ccccc2n1C)Cc1ccc(Cl)cc1 [Example 26, 1-Methyl-1H-benzoimidazole-2-carboxylic acid {(S)-4-(4-chloro-phenyl)-3-[methyl-(naphthalene-1-carbonyl)-amino]-butyl}-amide] | 308 nM | 3280 nM | 122 nM | 10 nM | – | –
COc1cc(OC)cc(C(=O)N(C)[C@H](CCNC(=O)c2cccn2C)Cc2ccccc2)c1 [Example 104, 1-Methyl-1H-pyrrole-2-carboxylic acid {(S)-3-[(3,5-dimethoxy-benzoyl)-methyl-amino]-4-phenyl-butyl}-amide] | 6 nM | 123 nM | 609 nM | 4 nM | – | –
CN(C(=O)c1ccccc1)[C@H](CCNC(=O)c1nc2ccccc2n1C)Cc1ccccc1 [Example 48, 1-Methyl-1H-benzoimidazole-2-carboxylic acid [(S)-3-(benzoyl-methyl-amino)-4-phenyl-butyl]-amide] | 940 nM | 2820 nM | 868 nM | 84 nM | – | –
CN(C(=O)c1ccccc1)[C@H](CCNC(=O)c1ccccn1)Cc1ccc(Cl)cc1 [Example 70, Pyridine-2-carboxylic acid [(S)-3-(benzoyl-methyl-amino)-4-(4-chloro-phenyl)-butyl]-amide] | 8310 nM | > 10000 nM | – | – | 0% | 29%
CN(C(=O)c1cccc2ccccc12)[C@H](CCNC(=O)c1ccccn1)Cc1ccc(F)cc1 [Example 28, Pyridine-2-carboxylic acid {(8)-4-(4-fluoro-phenyl)-3-[methyl-(naphthalene-1-carbonyl)-amino]-butyl}-amide] | 371 nM | 579 nM | 28 nM | 4 nM | – | –
CCOc1cccc(C(=O)N(C)[C@H](CCNC(=O)c2cccn2C)Cc2ccccc2)c1 [Example 121, 1-Methyl-1H-pyrrole-2-carboxylic acid {(S)-3-[(3-ethoxy-benzoyl)-methyl-amino]-4-phenyl-butyl}-amide] | 8 nM | 206 nM | 696 nM | 2 nM | – | –
CN(C(=O)c1cccc2c1OCC2)[C@H](CCNC(=O)c1ccccn1)Cc1ccccc1 [Example 46, Pyridine-2-carboxylic acid {(8)-3-[(2,3-dihydro-benzofuran-7-carbonyl)-methyl-amino]-4-phenyl-butyl}-amide] | 870 nM | 397 nM | 1830 nM | 1000 nM | – | –
CN(C(=O)c1cccc2[nH]ccc12)[C@H](CCNC(=O)c1ccccn1)Cc1ccccc1 [Example 11, 1H-Indole-4-carboxylic acid {(S)-1-benzyl-3-[(pyridine-2-carbonyl)-amino]-propyl}-methyl-amide] | 52 nM | 21 nM | 22 nM | 16 nM | – | –
CN(C(=O)c1cccc2c1OCO2)[C@H](CCNC(=O)c1ccccn1)Cc1ccc(Cl)cc1 [Example 65, Pyridine-2-carboxylic acid [(S)-3-[(benzo[1,3]dioxole-4-carbonyl)-methyl-amino]-4-(4-chloro-phenyl)-butyl]-amide] | 6980 nM | > 10000 nM | – | – | 3% | 41%
CN(C(=O)c1ccc(C(F)(F)F)c(C(F)(F)F)c1)[C@H](CCNC(=O)c1ccccn1)Cc1ccccc1 [Example 77, Pyridine-2-carboxylic acid {(8)-3-[(3,4-bis-trifluoromethyl-benzoyl)-methyl-amino]-4-phenyl-butyl}-amide] | 3710 nM | 8420 nM | – | 581 nM | 25% | –
CN(C(=O)c1ccc2c(c1)OCO2)[C@H](CCNC(=O)c1cc2ccccc2[nH]1)Cc1ccccc1 [Example 14, 1H-Indole-2-carboxylic acid {(S)-3-[(benzo[1,3]dioxole-5-carbonyl)-methyl-amino]-4-phenyl-butyl}-amide] | 521 nM | 1070 nM | 609 nM | 106 nM | – | –
CN(C(=O)c1ccc2c(c1)OCC2)[C@H](CCNC(=O)c1cccn1C)Cc1ccccc1 [Example 117, 1-Methyl-1H-pyrrole-2-carboxylic acid {(S)-3-[(2,3-dihydro-benzofuran-6-carbonyl)-methyl-amino]-4-phenyl-butyl}-amide] | 81 nM | 444 nM | 987 nM | 65 nM | – | –
CN(C(=O)c1cc(C(F)(F)F)cc(C(F)(F)F)c1)C(CCNC(=O)c1ccccc1)Cc1ccccc1 (stereo not shown) [Example 17, N-(3-Benzoylamino-1-benzyl-propyl)-N-methyl-3,5-bis-trifluoromethyl-benzamide] | 107 nM | 8790 nM | – | 41 nM | 36% | –

Source: patent US20100222396A1 (Novartis AG, priority 2009, published 2010)
